The text below walks through data of patent US20080275224A1, “Cyanoborate, Fluoroalkylphosphate, Fluoroalkylborate or Imide Dyes” (priority 2003, published 2008).

Data set [1] is described as follows: Solubility investigations of the dyes prepared in accordance with Examples 31 to 34.
A short description of data set [2]: Solubility in organic solvents (statements in the description).
Another data set in a line: physchem. To be noted: water.
Where [3] appears, read: acetonitrile, organic solvent or mixture, Solubility, CH3CN.
The mark [4] stands for this setting: dichloromethane, organic solvent or mixture, Solubility, CH2Cl2.
Setting [5] is: ethanol, organic solvent or mixture, Solubility.

For orientation: solubility means how much of the substance goes into solution per volume. Regarding `CN(C)c1ccc(C(=C2C=CC(=[N+](C)C)C=C2)c2ccc(N(C)C)cc2)cc1` [Crystal Violet [B(CF3)4]^−, Crystal Violet as tetrakis(trifluoromethyl)borate], the solubility entry is “insoluble” in data set [1] (H2O); “insoluble” in data set [1] (Pentane); over 5000 µg/mL in data set [1] (setting [3]); over 10000 µg/mL in data set [1] (setting [4]); over 10000 µg/mL in data set [1] (setting [5]).
As for `CCN(CC)c1ccc2nc3ccc(N=Nc4ccc(N(C)C)cc4)cc3[n+](-c3ccccc3)c2c1.[Cl-]` [Janus Green Cl^−, Janus Green, reference compound], in data set [2], the Solubility in benzene entry is “insoluble”.
Consider `CCN(CC)c1ccc2nc3ccc(/N=N/c4ccc(N(C)C)cc4)cc3[n+](-c3ccccc3)c2c1` [Janus Green [(CF3SO2)2N]^−], for which, in data set [2], the Solubility in benzene result is given as “soluble”.
As to `CC[N+](CC)=c1ccc2nc3c(cc(N)c4ccccc43)oc-2c1` [Nile Blue Hydrogensulfate anion, Nile Blue hydrogensulfate, reference compound], the Solubility in benzene result in data set [2] is “insoluble”. Further, in data set [2] (listed as Nile Blue with hydrogensulfate as anion), the “Solubility in dimethyl carbonate” value is “insoluble”.
For the compound `CC[N+](CC)=c1ccc2nc3c(cc(N)c4ccccc43)oc-2c1` [Nile Blue [(C2F5)3PF3]^−] [Nile Blue as tris(pentafluoroethyl)trifluorophosphate], in data set [2] (listed as Nile Blue FAP), the Solubility in benzene result was “soluble” and the “Solubility in dimethyl carbonate” value is on record as “readily or very readily soluble”.
Take `CC[N+](CC)=c1ccc2nc3c(cc(N)c4ccccc43)oc-2c1` [Nile Blue [(CF3SO2)2N]^−]: in data set [2] (listed as Nile Blue Im), the Solubility in benzene result is recorded as “soluble” and the “Solubility in dimethyl carbonate” value is on record as “readily or very readily soluble”.
For the compound `CC[N+](CC)=c1ccc2nc3c(cc(N)c4ccccc43)oc-2c1` [Nile Blue [B(CF3)4]^−, Nile Blue as tetrakis(trifluoromethyl)borate], in data set [2] (listed as Nile Blue FAB), the Solubility in benzene result is reported as “soluble”. Further, in data set [2] (listed as Nile Blue FAB), the “Solubility in dimethyl carbonate” value is on record as “readily or very readily soluble”. The solubility result in data set [1] (Pentane) is “insoluble”; in data set [1] (setting [3]), over 2000 µg/mL; in data set [1] (setting [4]), over 5000 µg/mL; in data set [1] (setting [5]) it was over 3000 µg/mL; in data set [1] (water, Solubility, H2O), under 10 µg/mL.
`CC[N+](CC)=c1ccc2nc3c(cc(N)c4ccccc43)oc-2c1` [Nile Blue [B(CN)4]^−, Nile Blue as tetracyanoborate]: in data set [2] (listed as Nile Blue CAB), the Solubility in benzene result is given as “soluble” and the “Solubility in dimethyl carbonate” value is “readily or very readily soluble”.
`Cc1cc2nc3cc(C)c(N)cc3[n+](-c3ccccc3)c2cc1N` [Safranine O [B(CF3)4]^−, safranine O as tetrakis(trifluoromethyl)borate] registered a solubility in “physchem” of under 10 µg/mL.
